Assay results: a melting point compilation (Tetko et al.; mined from patent text by program, amines drawn as free bases though some values may be those of a salt)

SMILES	melting point [°C]
CCN1C(=O)C(C)(C)N=C(c2ccccc2Cl)c2cc([N+](=O)[O-])ccc21	178
C1COCCOCCOCCNCCOCCOCCOCCN1	15
Cc1noc(C)c1-c1cn(Cc2ccccc2)c(=O)c2ccccc12	139 to 141
CC(O)C(O)Cc1cc(C(N)=O)ccc1C(N)=O (configuration not stated)	130
COC1CCN(C(=O)COc2cc(-c3ccccc3)nc3ccccc23)CC1	96
CCN(CC)CCNC(=O)c1cc2cc(I)ccc2[nH]1	208 to 210
O=C1NC(=O)C(c2c[nH]c3ccccc23)=C1c1c[nH]c2ccccc12	234
COc1ccc(C=CC(=O)Nc2cnc3cc(C)c(C)cc3c2-c2ccccc2Cl)cc1OC	210 to 211
CCC(CC)(COc1cc(C)c2nc(C)nn2n1)CS(N)(=O)=O	159 to 160
O=C(O)c1c(Cc2cc3c(cc2Cl)OCO3)c(-c2cccs2)nn1CC1CCCC(C(=O)O)C1 (configuration not stated)	> 260
CCCC(=O)NC(C#N)C(=O)OCC (configuration not stated)	110
COCCCCOc1ccc(OCc2ccccc2)cc1	60 to 61
CCCSc1sc(C(=O)NC)c2c1-c1c(cnn1CC(F)(F)F)CC2	75 to 76
COc1ccc(-c2cc(C(F)F)nn2-c2ccc(S(N)(=O)=O)cc2)cc1F	159 to 161
CC(=O)NC1(c2ccc(CCl)cc2)CC1	124 to 127
C=C(CC(O)C(=O)OCC)CC(NC=O)(C(=O)OCC)C(=O)OCC (configuration not stated)	68
N#CC(CC(=O)O)c1ccc(Cl)c(Cl)c1 (configuration not stated)	104
CCN(CC)CCOc1ccc2[nH]c3c([N+](=O)[O-])ccc(Cl)c3c(=O)c2c1	148 to 151
C#CCNC(=O)C(c1ccccc1)c1ccccc1	131
c1ccc(C(OC2CCN(CCCNc3ccc4nncn4n3)CC2)c2ccccc2)cc1	167 to 168
COc1ccc(CC2SC(=O)NC2=O)c2c1N(Cc1ccc([N+](=O)[O-])cc1)C(=O)CC2 (configuration not stated)	246 to 247
COCCN(CCOC)c1ccccc1NC(N)=S	118 to 119
CC1(C)CC(n2ccc(-c3ccc(F)cc3)c2-c2ccncc2)CC(C)(C)N1	118 to 119
CC(=O)c1cccc(-c2cc3c(=O)n(NS(C)(=O)=O)c(=O)[nH]c3cc2C(F)(F)F)c1	220 to 222

SMILES	melting point [°C]
CCOC(=O)C1=CCCCC1S(=O)(=O)Nn1cccc1 (configuration not stated)	85 to 86
COc1ccc(Sc2nc(-c3ccccc3)cnc2N)cc1	116 to 118
CCc1c(Cc2[nH]c(C=O)c(C)c2CCCOC(C)=O)[nH]c(Cc2[nH]c(C=O)c(C)c2CCCOC(C)=O)c1CC	179 to 181
CCc1onc(-c2ccccc2)c1C(=O)NCCCN1CCN(c2ccc(F)cc2OCC(F)(F)F)CC1	115 to 117
Cn1nc(-c2ccc(OC3CCN(C4CCCC4)CC3)cc2)ccc1=O	129 to 132
CCOC(=O)C(C)(C)n1c(=O)[nH]c2ccc(C)cc2c1=O	156 to 157
COC(=O)C1Cc2c([nH]c3ccccc23)C(c2cccc(Cl)c2)N1 (configuration not stated)	150 to 160
CCCCCCOc1ccccc1C(=N)OCC	68 to 70
CC(C)(OCc1nn(Cc2ccccc2)c2ccccc12)C(=O)NN	92 to 93
N#Cc1ccc(Cl)cc1OCC(O)CNc1ccccc1OC1CC=NNC1=O (configuration not stated)	156 to 158
CCOC(=O)c1cn(C2CC2)c2c(F)c(F)c(F)c(CC)c2c1=O	139 to 140
O=[N+]([O-])c1ccc(C(F)(F)F)c(Nc2nc3ccccc3o2)c1	150 to 152
O=C(Nc1ccccc1)NC(Cc1c[nH]c2ccccc12)C(=O)NCc1cc(C(F)(F)F)cc(C(F)(F)F)c1 (configuration not stated)	219 to 221
CN(C)Cc1ccc(CSCCNC2=NS(=O)(=O)c3cscc32)o1	120 to 124
C#CCN1CCNC1=C[N+](=O)[O-]	146 to 147
O=C(O)CCCc1cc2nc(Cl)ccc2n1S(=O)(=O)c1cc(C(F)(F)F)cc(C(F)(F)F)c1	155 to 164
COC(=O)c1ccc(-c2nc(Nc3cc(OC)c(OC)c(OC)c3)ncc2C#N)cc1	206 to 208
COc1ccc(C2=CC(C3CCN(c4ncnc5c4cnn5C)CC3)C(=O)C3CC=CCC23)cc1OC (configuration not stated)	193 to 194
CSC(=S)C1(c2ccncc2)CCCS1 (configuration not stated)	64
COc1ccc(N=Cc2cc(OC)c(OC)c(OC)c2)cc1	78 to 86
Nc1c(C(=O)c2ccccc2)oc2ccccc12	122 to 124
CCS(=O)c1c(C#N)nn(-c2c(Cl)cc(C(F)(F)F)cc2Cl)c1NCCSC (configuration not stated)	111 to 113
CC1=C(CCN(O)C(N)=O)c2cc(F)ccc2/C1=C\c1ccc(S(C)(=O)=O)cc1	187
Cc1ccc(-c2c(Cl)nc3ncnn3c2Cl)c(F)c1	152

SMILES	melting point [°C]
COc1ccc(S(=O)(=O)N(Cc2cc(C(C)(C)C)c(O)c(C(C)(C)C)c2)c2cccnc2)cc1	142 to 143
CC(=O)Oc1cccc2c1C(=O)c1c(OC(C)=O)cc(C#N)cc1C2=O	218 to 220
CN1CCC(c2c[nH]c3ccc(OCc4ccccc4)cc23)CC1	163 to 164
BrCc1ccc(-c2nc3ccccn3n2)cc1	196
Cn1nc(-c2cnc(N)nc2-c2ccc(F)c(F)c2)ccc1=O	231
COc1cc(OC)c2cc(S(=O)(=O)Cc3ccc(OC)c([N+](=O)[O-])c3)c(=O)oc2c1	224 to 225
COCCOc1cccc2cc(-c3nnn[nH]3)c(=O)oc12	215
NC(=NCC(F)(F)F)Nc1ccnc(OCCCc2ccccn2)n1	118 to 120
CC(C)n1nc(-c2c(NC(C)(C)C)nc(N)nc2-c2ccccc2)ccc1=O	202 to 204
O=C(Nc1cccc(S(=O)(=O)N2CCCC2CO)c1)c1cnn2c(C(F)(F)F)cc(-c3ccc(Cl)cc3)nc12 (configuration not stated)	227 to 229
CCc1cc(C)c(F)c(CC)c1-c1c(O)c(C)nn(C)c1=O	193 to 195
Nc1noc(-c2nc(Cl)c(N)nc2N)n1	278
CCCc1cc(C(=O)O)ccc1OCc1ccccc1	163
CC1(C)N=C(SCc2cccc3cccnc23)N=C1SCc1cccc2cccnc12	101 to 104
CN(C)CCNC(=O)c1cn(C)c(=O)c2cc3cccnc3nc12	218 to 221
COCCOc1ccccc1S(=O)(=O)NC(=O)Nc1nc(C)nc(OC)n1	134 to 138
N#CCCNC(=O)c1cccc(-c2cccc3nn(Cc4ccccc4F)cc23)c1	165 to 166
COC(=N)N1CCC(c2n[nH]c3cc(F)ccc23)CC1	162 to 164
CCOC(=O)c1c(O)c2ccccc2c2nc3ccccc3nc12	126 to 127
O=c1[nH]c2c(c3nc(-c4ccccc4F)nn13)CCCCC2	257 to 259
COc1cc(OC)c2c(=O)c3oc4cc(OC)ccc4c3oc2c1	272 to 274
Cc1cc(=O)n(C)c2ccc(C3=NNC(=O)CC3CO)cc12 (configuration not stated)	222 to 223
CC(C)(C)OC(=O)c1ccc2c(c1)NCc1ccccc1O2	121 to 123
O=C(O)c1cc(-c2ccccc2)c2ccsc2c1	222
